Data as given in US7691874B2, “Neuroprotective properties of dextrorotatory morphinans” (priority 2004, dated 2010).
Marks after values point to notes of the source that are not given here.

Assays:
[1] = tested on: C57 BL/6 mice; test: Conditioned place preference (psychological dependence) following repeated administration of morphinans or PCP; type: in vivo; conditions: 20 or 40 mg/kg i.p. (PCP 2.5 or 5 mg/kg); vs saline
Procedure: On day 14, the guillotine doors were raised. […] Data were analyzed between 0900 and 1700 hr.

[2] = tested on: LPS-treated mice; test: Striatal dopamine and metabolites in LPS-treated mice; type: in vivo; conditions: for Concentration DA in the striatum: 3 weeks after LPS
Text: (§1) Control animals received striatal injection with PBS.
Mice were sacrificed at 3 weeks after LPS treatment.

[3] = tested on: LPS-treated mice; test: Nigral TH-IR in LPS-treated mice; type: in vivo; conditions: 24 mg/kg i.p.
Text: FIGS. 8A-8B. […] Magnification=40×.
as §1

[4] = tested on: MA-treated mice; test: Methamphetamine (MA)-induced hyperthermia; type: in vivo; conditions: 24 mg/kg; MA 7.5 mg/kg i.p. x 4 at 2-h intervals
Procedure: Rectal temperature was recorded at 40 min after each MA treatment. […] Mice were sacrificed at 3 days after final MA injection.
FIGS. 10A-10B show effect of morphinans on the methamphetamine (MA)-induced hyperthermia. Mice received i.p. injections of MA (four injections of 7.5 mg/kg each) at 2-h intervals under the ambient temperature of 22.0±0.5° C. Temperatures were recorded at 40 min after each MA treatment (Arrow=MA injection).

[5] = tested on: MPTP-treated mice; test: MPTP-induced loss of nigral TH-IR with CB1 agonist/antagonist and HM; type: in vivo; conditions: given alone: AM-251 0.3, ACEA 2, HM 20 mg/kg i.p.; MPTP 20 mg/kg i.p./day x 7
Procedure: CB1 agonist or antagonist was administered 45 min before every MPTP, while HM was injected 30 min before every MPTP (20 mg/kg, i.p./day×7). Compounds were administered for 7 days post-final MPTP.

[6] = tested on: LPS-treated mice; test: LPS-induced loss of nigral TH-IR with CB1 agonist/antagonist and HM; type: in vivo; conditions: given alone
Procedure: Mortality was observed by 2 weeks after bilateral LPS intrastriatal injection (one side: 2 μg×2).

[7] = tested on: LPS-treated mice; test: LPS model, HM versus L-dopa/carbidopa: microglia F4/80-like immunoreactivity; type: in vivo; conditions: substantia nigra
[8] = tested on: MA-treated mice; test: MA model, HM versus L-dopa/carbidopa: hyperthermia; type: in vivo; conditions: MA 7.5 mg/kg i.p. x 4
Procedure: FIGS. 31A-31B show effect of drugs on the MA-induced hyperthermia. Mice received MA injections as 2 hrs' time interval under the ambient temperature of 22.0±0.5° C.
Experimental paradigm for MA with or without compounds is in FIG. 30. Treatment with MA (7.5 mg/kg, i.p.×four times as two hour time interval) produces hyperthermia (P<0.01).

[9] = tested on: MA-treated mice; test: MA model, HM versus L-dopa/carbidopa: locomotor activity; type: in vivo; conditions: 3 days after MA
[10] = tested on: cocaine-treated mice; test: Cocaine-induced hyperlocomotion; type: in vivo
Method in brief: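 Morphinans (15 and 30 mg/kg, i.p.) or dimemorfan (20 mg/kg, i.p.) given 30 minutes before cocaine (5 and 20 mg/kg, i.p.); treatments continued for 7 days. Locomotion scored as central activity (non-specific movement in box center) and marginal activity (circling).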

[11] = tested on: cocaine-treated mice; test: Cocaine-induced conditioned place preference with CB1 modulation
Procedure: The control mice received an i.p. injection of saline just before entering the white or black compartment. Cocaine or MA dissolved in saline was administered immediately before the mice were placed in the white compartment. To test the effect of cocaine alone or MA alone or in combination with exemplified morphinans (DM, HM, AM, CM or DF), each morphinan was administered 2 hr before cocaine or saline injection.
On day 1, the mice were pre-exposed to the test apparatus for 5 min. The guillotine doors were raised and the mice were allowed to move freely between the two compartments. On day 2, the time each mouse spent in each compartment was recorded for 15 min. On days 3, 5, 7, 9, 11, and 13, the mice were injected with cocaine before being confined to the white compartment, the non-preferred side, for 20 min. On days 4, 6, 8, 10, and 12, the mice were injected with saline before being confined to the black compartment, the preferred side, for 20 min. On day 14, the guillotine doors were raised. The mice were initially placed in the tunnel and the time spent by the mice in the two compartments was recorded for 15 min. The scores were calculated from the differences in the time spent in the white compartment in the testing and pre-testing phases.

[12] = tested on: MA-treated mice; test: MA-induced behavioural sensitization
Procedure: Morphinans (20 mg/kg, i.p.) were administered last 3 days of wash-out period.

[13] = tested on: NMDA receptor associated PCP sites; conditions: cited from earlier work
[14] = tested on: kainate or maximal electric shock; conditions: kainate (24) or maximal electric shock (27); cited from earlier work
[15] = tested on: LPS-treated mice; test: Hypokinesia induced by intrastriatal LPS; conditions: 12 or 24 mg/kg, twice before bilateral intrastriatal LPS
Procedure: Male mice were anesthetized with chloral hydrate (200 mg/kg, i.p.) and positioned in a small-animal stereotaxic apparatus. […] LPS (2 μg in a volume of 2 μl of PBS) was injected into both sides of the striatum over a period of 2 min, and the injection needle was kept in place for 2 min after the injection. Control animals received striatal injection with PBS.
Ten min after the last treatment with each drug, locomotor activity was measured for 30 min. After measuring the locomotor activity (i.e. 40 min after the last drug injection), the ‘absolute turn angular’ was analyzed in a 3-min monitoring period using an automated video-tracking system (Noldus Information Technology, Wagenin, The Netherlands) to examine locomotor patterns. […] Eight test boxes (40×40×30 cm high) were operated simultaneously by an IBM computer. Animals were studied individually during locomotion in each test box, where they were adapted for 10 min before starting the experiment. […] The distance traveled in cm by the animals in horizontal locomotor activity was analyzed (13, 25, 27). Data were collected and analyzed between 0900 and 1700 hr.

[16] = tested on: cocaine-treated mice; test: Cocaine-induced Fos-related antigen-immunoreactivity (FRA-IR) in the striatum; conditions: cocaine 5 mg/kg; morphinan 20 mg/kg i.p.
[17] = biological target: cannabinoid CB1 site (Rattus norvegicus, UniProt P20272)
Sequence of cannabinoid CB1 site (P20272 whole entry): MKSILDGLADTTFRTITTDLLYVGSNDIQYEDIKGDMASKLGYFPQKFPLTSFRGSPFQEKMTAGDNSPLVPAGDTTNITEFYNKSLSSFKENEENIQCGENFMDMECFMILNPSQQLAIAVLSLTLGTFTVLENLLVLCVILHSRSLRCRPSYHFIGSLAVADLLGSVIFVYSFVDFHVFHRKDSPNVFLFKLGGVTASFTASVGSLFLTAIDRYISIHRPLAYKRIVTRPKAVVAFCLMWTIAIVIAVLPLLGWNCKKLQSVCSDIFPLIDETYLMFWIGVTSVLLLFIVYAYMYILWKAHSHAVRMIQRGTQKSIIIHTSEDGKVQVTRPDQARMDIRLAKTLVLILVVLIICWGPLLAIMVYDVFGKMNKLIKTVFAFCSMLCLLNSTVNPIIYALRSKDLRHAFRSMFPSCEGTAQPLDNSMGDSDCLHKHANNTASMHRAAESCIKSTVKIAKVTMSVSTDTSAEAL

Structure (SMILES): Oc1ccc2c(c1)[C@@]13CCCC[C@H]1[C@@H](C2)NCC3 [HM, 3-hydroxymorphinan]
- conditioned place preference (CPP) [1]: almost no CPP effects
- effect on LPS-induced reductions in striatal DA, DOPAC and HVA ([2]; 24 mg/kg pretreatment): significantly protected
- Concentration DOPAC in the striatum ([2]; morphinan 12 (mg/kg) + LPS): 83 ± 10 ng/100 mg wet tissue
- Concentration HVA in the striatum ([2]; morphinan 12 (mg/kg) + LPS): 86 ± 8 ng/100 mg wet tissue
- Concentration DA in the striatum ([2]; morphinan 12 (mg/kg) + LPS, mean ± S.E.M., 8 animals): 682 ± 70 ng/100 mg wet tissue
- Concentration DOPAC in the striatum ([2]; morphinan 24 (mg/kg) + LPS): 112 ± 11^d ng/100 mg wet tissue
- Concentration HVA in the striatum ([2]; morphinan 24 (mg/kg) + LPS): 102 ± 10^b ng/100 mg wet tissue
- Concentration DA in the striatum ([2]; morphinan 24 (mg/kg) + LPS): 916 ± 98^d ng/100 mg wet tissue
- effect on LPS-induced reduction in nigral TH-positive cells [3]: significantly attenuated the reduction in TH-positive cells
- effect on MA-induced hyperthermia (rectal temperature) [4]: most efficacious
- effect on MPTP-induced reduction of nigral TH-IR [5]: Attenuates MPTP-induced Reduced Tyrosine Hydroxylase-like Immunoreactivity
- effect on LPS-induced reduction in nigral TH-IR [6]: Attenuates LPS-Induced Reduced Tyrosine Hydroxylase-like Immunoreactivity
- effect on LPS-induced increase in F4/80-like immunoreactivity (microglia) [7]: most effective in attenuating LPS-induced increase in F4/80-like immunoreactivity
- effect on MA-induced hyperthermia [8]: significantly attenenuated
- effect on MA-induced reduction in locomotor activity [9]: more efficacious than that of L-dopa or carbidopa+L-dopa
- effect on locomotor activity induced by low dose of cocaine ([10]; cocaine 5 mg/kg i.p. x 7 days, morphinan 15 or 30 mg/kg (DF 20 mg/kg) i.p.): consistently attenuated locomotor activity induced by a low dose of cocaine
- effect on hyperactivity induced by high dose of cocaine ([10]; cocaine 20 mg/kg i.p. x 7 days, morphinan 15 or 30 mg/kg i.p. 30 min before): not uniform
- CPP response of the compound itself ([11]; AM 251 0.3, HM 20, ACEA 2 mg/kg, no cocaine): Neither saline-, AM 251 (0.3 mg/kg)-treated nor HM (20 mg/kg)-treated animals showed any CPP response
- effect on cocaine-induced CPP ([11]; cocaine 10 mg/kg): significantly reduced
- behavioural effects of the compound itself ([12]; AM 251 0.3, ACEA 2, HM 20 mg/kg, no MA (Ex. 3.14)): Neither saline-, AM 251 (0.3 mg/kg)-, ACEA (2 mg/kg)-treated nor HM (20 mg/kg)-treated animals showed any behavioural effects
- effect on MA-induced behavioural sensitization (CB1 modulation study) ([12]; MA 1 mg/kg i.p./day x 7, challenge one week later (Ex. 3.14)): significantly reduced
- affinity for NMDA receptor associated PCP sites [13]: very low affinities
- anticonvulsant effect [14]: did not show any anticonvulsant effect
- effect on LPS-induced decrease in locomotor activity [15]: significantly prevented LPS-induced decrease in locomotor activity
- effect on cocaine-induced FRA-IR in the striatum [16]: apparently attenuated
- Ki [17]: 0.0115 µM
